Assay [1] concerns the target T1, Delta-type opioid receptor (Homo sapiens, UniProt P41143). Put plainly: Displacement of [3H]naltrindole from human delta opioid receptor expressed in CHO membrane at 10 uM. The assay is classed as cell membranes. In general terms: Loss of bound radioactivity is the signal in a displacement assay; it reports binding, not function.
For assay [2], the target named is T2, Mu-type opioid receptor (Homo sapiens, UniProt P35372). Description: Displacement of [3H]DAMGO from human mu opioid receptor expressed in CHO membrane. The assay is classed as cell membranes.
In assay [3] the target is T3, Kappa-type opioid receptor (Homo sapiens, UniProt P41145). Put plainly: Displacement of [3H]U69,593 from human kappa opioid receptor expressed in CHO membrane. The assay is classed as cell membranes.
Assay [4] addresses T1, Delta-type opioid receptor. Description: Displacement of [3H]naltrindole from human delta opioid receptor expressed in CHO membrane. The assay is classed as cell membranes.
Assay [5] concerns the target T3, Kappa-type opioid receptor. Description: Agonist activity at human kappa opioid receptor expressed in CHO cells assessed as stimulation of [35S]GTP-gamma-S binding after 60 mins. It is filed as functional, cell-based. Background: Binding of GTPγS marks nucleotide exchange on a G protein.
Assay [6] deals with T3, Kappa-type opioid receptor. Description: Agonist activity at human kappa opioid receptor expressed in CHO cells assessed as stimulation of [35S]GTP-gamma-S binding relative to basal level after 60 mins. It is filed as functional, cell-based.
Assay [7] is described as follows: Displacement of [3H]naltrindole from human delta opioid receptor expressed in CHO membrane.
Assay [8] concerns the target T2, Mu-type opioid receptor. Put plainly: Antagonist activity at human mu opioid receptor expressed in CHO cells assessed as inhibition of DAMGO-induced [35S]GTPgammaS binding after 60 mins. The assay is classed as functional, cell-based.
Assay [9] concerns the target T2, Mu-type opioid receptor. Put plainly: Agonist activity at human mu opioid receptor expressed in CHO cells assessed as stimulation of [35S]GTP-gamma-S binding relative to basal level after 60 mins. It is filed as functional, cell-based.
For assay [10], the target named is T2, Mu-type opioid receptor. Description: Agonist activity at human mu opioid receptor expressed in CHO cells assessed as stimulation of [35S]GTP-gamma-S binding after 60 mins. It is filed as functional, cell-based.

pEC50, pIC50, pKi: −log10 of the molar value.

T2 sequence (P35372 whole entry): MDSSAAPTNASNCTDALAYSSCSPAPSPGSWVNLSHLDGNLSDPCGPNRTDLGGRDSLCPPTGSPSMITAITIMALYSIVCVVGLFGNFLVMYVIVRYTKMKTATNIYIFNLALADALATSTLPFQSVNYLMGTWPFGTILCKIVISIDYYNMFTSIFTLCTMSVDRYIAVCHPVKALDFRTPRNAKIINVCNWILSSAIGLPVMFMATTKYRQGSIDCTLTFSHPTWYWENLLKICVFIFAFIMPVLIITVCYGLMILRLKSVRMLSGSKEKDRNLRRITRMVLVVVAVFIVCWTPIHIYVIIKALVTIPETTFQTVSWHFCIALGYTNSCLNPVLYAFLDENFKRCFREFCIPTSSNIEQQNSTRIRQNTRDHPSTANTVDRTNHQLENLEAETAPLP
T1 sequence (P41143 whole entry): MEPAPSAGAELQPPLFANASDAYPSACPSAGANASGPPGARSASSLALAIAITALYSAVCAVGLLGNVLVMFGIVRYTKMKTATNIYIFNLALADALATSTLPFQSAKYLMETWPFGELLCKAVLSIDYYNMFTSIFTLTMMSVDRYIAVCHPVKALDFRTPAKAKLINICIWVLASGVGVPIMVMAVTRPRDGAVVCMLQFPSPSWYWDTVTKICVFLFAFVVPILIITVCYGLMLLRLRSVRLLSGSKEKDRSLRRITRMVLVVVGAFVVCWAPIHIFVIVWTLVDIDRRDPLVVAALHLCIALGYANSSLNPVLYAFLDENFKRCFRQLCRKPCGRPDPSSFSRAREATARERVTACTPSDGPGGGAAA
T3 sequence (P41145 whole entry): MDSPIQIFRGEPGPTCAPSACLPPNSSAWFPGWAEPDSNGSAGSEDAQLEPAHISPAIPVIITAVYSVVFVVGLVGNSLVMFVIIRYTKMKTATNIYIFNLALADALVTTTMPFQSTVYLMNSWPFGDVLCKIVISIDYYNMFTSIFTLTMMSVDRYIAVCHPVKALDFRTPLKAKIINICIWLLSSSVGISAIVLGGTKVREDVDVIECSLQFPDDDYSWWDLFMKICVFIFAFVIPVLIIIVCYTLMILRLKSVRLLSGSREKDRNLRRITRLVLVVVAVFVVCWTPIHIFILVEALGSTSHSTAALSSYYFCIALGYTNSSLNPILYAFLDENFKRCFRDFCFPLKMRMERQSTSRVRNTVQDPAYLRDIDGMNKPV

Take `Nc1nc2cc3c(cc2o1)[C@@]12CCCC[C@H]1[C@@H](C3)N(CC1CC1)CC2`: the inhibition (usually the percentage by which the read-out fell short of the control) in assay [1] is 18%. In addition, the pKi (commonly the negative decadic logarithm of the Ki, by convention in mol/L) at Mu-type opioid receptor [2] was 6.82; in assay [3], 7.28.
Consider `CNC(=O)Nc1ccc2c(c1)[C@@]13CCCC[C@H]1[C@@H](C2)N(CC1CCC1)CC3`, for which the figures for the pKi (on Mu-type opioid receptor [2]; in assay [3]; in assay [4]) were 7.66, 7.70 and 6.57, respectively.
Consider `O=c1[nH]c2cc3c(cc2o1)[C@@]12CCCC[C@H]1[C@@H](C3)N(CC1CCC1)CC2`, for which the figures for the negative logarithm of the Ki (pKi) (on Mu-type opioid receptor [2]; in [3]; in assay [4]) were 8.24, 8.72 and 6.44, respectively.
As for `CNC(=O)Nc1ccc2c(c1)[C@@]13CCCC[C@H]1[C@@H](C2)N(CC1CC1)CC3`, the negative logarithm of the Ki (pKi) is 7.92 at Mu-type opioid receptor [2], 8.64 in [3] and 7.30 in assay [4]. Besides, the pEC50 – broadly, the EC50 on a negative log10 scale, so that one unit is a factor of ten – in assay [5] is 8.08. Moreover, the Emax – broadly, the greatest response seen or fitted, relative to the assay's reference – in assay [6] turned out to be 67%.
On to `Nc1nc2cc3c(cc2o1)[C@@]12CCCC[C@H]1[C@@H](C3)N(CC1CCC1)CC2`, for which the inhibition in [1] was 46%. For the same compound, the pKi at Mu-type opioid receptor [2] is 7.40; in assay [3] it was 8.18.
Take `Nc1ccc2c(c1)[C@@]13CCCC[C@H]1[C@@H](C2)N(CC1CC1)CC3`: the results for the pKi (at Mu-type opioid receptor [2]; in [7]; in assay [3]) were 8.89, 6.82 and 9.74, respectively.
Take `NC(=O)Nc1ccc2c(c1)[C@@]13CCCC[C@H]1[C@@H](C2)N(CC1CC1)CC3`: the negative-log Ki (pKi) on Mu-type opioid receptor [2] is 8.85; in assay [3] it was 9.21; in assay [4], 7.64. Also, the pEC50 is 7.48 in assay [5] and 7.51 on Mu-type opioid receptor [10]. The Emax in assay [6] worked out at 84%; on Mu-type opioid receptor [9], 21%. Further, the pIC50 – broadly, the IC50 on a negative log10 scale, so that one unit is a factor of ten – at Mu-type opioid receptor [8] is 6.42. Further, the Imax on Mu-type opioid receptor [8] is 52%.
For the compound `NC(=O)Nc1ccc2c(c1)[C@@]13CCCC[C@H]1[C@@H](C2)N(CC1CCC1)CC3`, the negative logarithm of the Ki (pKi) was 8.49 at Mu-type opioid receptor [2], 8.05 in [3] and 6.80 in assay [4]. In addition, the results for the pEC50 (in assay [5]; at Mu-type opioid receptor [10]) were 7.06 and 7.20, respectively. In addition, the Emax in [6] came out at 64%; on Mu-type opioid receptor [9] it was 33%. In addition, the pIC50 on Mu-type opioid receptor [8] was 5.82. In addition, the Imax on Mu-type opioid receptor [8] came to 35%.
`O=c1[nH]c2cc3c(cc2o1)[C@@]12CCCC[C@H]1[C@@H](C3)N(CC1CC1)CC2` showed an inhibition in [1] of 44%. Moreover, the pKi was 6.80 on Mu-type opioid receptor [2] and 7.33 in [3].
In turn, `Nc1ccc2c(c1)[C@@]13CCCC[C@H]1[C@@H](C2)N(CC1CCC1)CC3` gave a negative logarithm of the Ki (pKi) in assay [7] of 6.74.

Values taken from ChEMBL document CHEMBL1147995, “In-vitro investigation of oxazol and urea analogues of morphinan at opioid receptors” (Bioorg Med Chem, 2007).
